Values joined by “and” are separate entries in the source; they are usually repeats but may differ in a detail not shown here. Identical values can stand only once. ± gives the expanded uncertainty stated by the source.
Settings: Crystal, Calculated from knudsen effusion weight loss

O=Cc1cccc(O)c1 [3-hydroxybenzaldehyde]
Settings	vapor or sublimation pressure
312.17 K	0.000139 ± 7e-06 kPa and 0.000134 ± 7e-06 kPa and 0.000131 ± 7e-06 kPa
314.2 K	0.000177 ± 9e-06 kPa and 0.000171 ± 9e-06 kPa and 0.000168 ± 8e-06 kPa
316.2 K	0.000233 ± 1.2e-05 kPa and 0.00022 ± 1.1e-05 kPa and 0.000216 ± 1.1e-05 kPa
318.19 K	0.00028 ± 1.4e-05 kPa and 0.000275 ± 1.4e-05 kPa and 0.000288 ± 1.4e-05 kPa
320.18 K	0.000377 ± 1.9e-05 kPa and 0.000358 ± 1.8e-05 kPa and 0.000353 ± 1.8e-05 kPa
322.2 K	0.000462 ± 2.3e-05 kPa and 0.000453 ± 2.3e-05 kPa and 0.00044 ± 2.2e-05 kPa
324.17 K	0.000581 ± 2.9e-05 kPa and 0.000557 ± 2.8e-05 kPa and 0.000542 ± 2.7e-05 kPa
326.22 K	0.000738 ± 3.7e-05 kPa and 0.000712 ± 3.6e-05 kPa and 0.000694 ± 3.5e-05 kPa
328.18 K	0.000907 ± 4.5e-05 kPa and 0.000871 ± 4.4e-05 kPa and 0.000849 ± 4.3e-05 kPa
330.19 K	0.001139 ± 0.00012 kPa and 0.00109 ± 0.00011 kPa and 0.001058 ± 0.00011 kPa

O=Cc1ccc(O)cc1 [4-hydroxybenzaldehyde]
Settings	vapor or sublimation pressure
324.2 K	0.000157 ± 8e-06 kPa and 0.000151 ± 8e-06 kPa and 0.000149 ± 7e-06 kPa
326.16 K	0.000197 ± 1e-05 kPa and 0.000193 ± 1e-05 kPa and 0.000187 ± 9e-06 kPa
328.31 K	0.000252 ± 1.3e-05 kPa and 0.000244 ± 1.2e-05 kPa and 0.000242 ± 1.2e-05 kPa
330.18 K	0.000303 ± 1.5e-05 kPa and 0.000296 ± 1.5e-05 kPa and 0.000308 ± 1.5e-05 kPa
332.16 K	0.000382 ± 1.9e-05 kPa and 0.000375 ± 1.9e-05 kPa and 0.00037 ± 1.9e-05 kPa
334.18 K	0.000477 ± 2.4e-05 kPa and 0.000472 ± 2.4e-05 kPa and 0.000463 ± 2.3e-05 kPa
336.22 K	0.000603 ± 3e-05 kPa and 0.000602 ± 3e-05 kPa and 0.000583 ± 2.9e-05 kPa
338.34 K	0.000756 ± 3.8e-05 kPa and 0.000738 ± 3.7e-05 kPa and 0.000728 ± 3.6e-05 kPa
340.17 K	0.000926 ± 4.6e-05 kPa and 0.000905 ± 4.5e-05 kPa and 0.000886 ± 4.4e-05 kPa
341.3 K	0.001019 ± 0.0001 kPa and 0.001005 ± 0.0001 kPa and 0.000984 ± 4.9e-05 kPa

CC(C)(C)c1cc(C=O)c(O)c(C(C)(C)C)c1 [3,5-di-tert-butyl-2-hydroxybenzaldehyde]
Settings	vapor or sublimation pressure
296.28 K	0.000151 ± 8e-06 kPa and 0.000143 ± 7e-06 kPa and 0.00014 ± 7e-06 kPa
298.16 K	0.000193 ± 1e-05 kPa and 0.00018 ± 9e-06 kPa and 0.000176 ± 9e-06 kPa
300.17 K	0.000248 ± 1.2e-05 kPa and 0.000237 ± 1.2e-05 kPa and 0.000234 ± 1.2e-05 kPa
302.18 K	0.000304 ± 1.5e-05 kPa and 0.0003 ± 1.5e-05 kPa and 0.000322 ± 1.6e-05 kPa
304.15 K	0.000408 ± 2e-05 kPa and 0.000382 ± 1.9e-05 kPa and 0.000378 ± 1.9e-05 kPa
306.37 K	0.000542 ± 2.7e-05 kPa and 0.000514 ± 2.6e-05 kPa and 0.000505 ± 2.5e-05 kPa
308.18 K	0.000673 ± 3.4e-05 kPa and 0.000631 ± 3.2e-05 kPa and 0.00062 ± 3.1e-05 kPa
310.17 K	0.000861 ± 4.3e-05 kPa and 0.000812 ± 4.1e-05 kPa and 0.000801 ± 4e-05 kPa
312.2 K	0.001099 ± 0.00011 kPa and 0.001032 ± 0.0001 kPa and 0.001014 ± 0.0001 kPa

Reference: the NIST ThermoML archive (doi:10.1016/j.jct.2009.10.009)
